Laboratory results from patent US20260347338A1, “PYRIMIDINE/PYRIDINE DERIVATIVES OR SALTS THEREOF AND PHARMACEUTICAL COMPOSITIONS COMPRISING THE SAME” (YUHAN CORPORATION, priority 2023, published 2026).
Where a name gives a salt, the structure may show the parent alone.

molecular target: T1, human recombinant HPK1 (Homo sapiens, UniProt Q92918); test: Inhibitory activity against human recombinant HPK1 (TR-FRET); type: biochemical; conditions: ULight-p70S6K peptide, ATP at Km, room temperature, 1 hour, 0.32 to 1000 nM compound
T1 construct: purchased BPS Bioscience
T1 sequence (Q92918 whole entry): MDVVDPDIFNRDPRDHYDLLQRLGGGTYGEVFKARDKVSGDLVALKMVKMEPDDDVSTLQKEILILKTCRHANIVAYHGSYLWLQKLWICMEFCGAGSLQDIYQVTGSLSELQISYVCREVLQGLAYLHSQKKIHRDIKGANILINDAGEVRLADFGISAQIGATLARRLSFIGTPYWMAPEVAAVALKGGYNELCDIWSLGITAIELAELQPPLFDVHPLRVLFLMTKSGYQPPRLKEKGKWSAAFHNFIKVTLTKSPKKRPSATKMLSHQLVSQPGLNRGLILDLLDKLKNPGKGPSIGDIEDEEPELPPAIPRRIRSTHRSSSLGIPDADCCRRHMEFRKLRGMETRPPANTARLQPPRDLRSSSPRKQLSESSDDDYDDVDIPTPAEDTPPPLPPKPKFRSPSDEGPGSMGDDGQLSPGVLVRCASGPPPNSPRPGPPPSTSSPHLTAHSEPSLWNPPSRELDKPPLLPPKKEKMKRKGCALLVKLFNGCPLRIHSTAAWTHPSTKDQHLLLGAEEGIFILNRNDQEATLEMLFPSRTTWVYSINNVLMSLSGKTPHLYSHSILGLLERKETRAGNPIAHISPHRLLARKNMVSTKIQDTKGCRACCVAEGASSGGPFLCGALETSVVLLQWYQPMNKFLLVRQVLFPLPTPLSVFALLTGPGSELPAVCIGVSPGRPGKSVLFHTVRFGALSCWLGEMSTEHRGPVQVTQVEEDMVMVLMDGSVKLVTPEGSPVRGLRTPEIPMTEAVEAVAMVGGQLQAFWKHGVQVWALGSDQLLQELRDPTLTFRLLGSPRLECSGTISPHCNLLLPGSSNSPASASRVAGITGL
Outline: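 IC50 classes A–D use 10, 50 and 100 nM cut-offs, derived from TR-FRET signal inhibition relative to DMSO controls. Human recombinant HPK1 phosphorylated ULight-p70S6K peptide at Km ATP for 1 h, room temperature, pH 7.4; test range 0.32–1000 nM final, detection with Eu-labelled antibody after EDTA quench.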

Row | Compound | IC50
1 | COc1cc(CO)cc(F)c1-c1nccc(Nc2cc(N3CCC[C@H](N)C3)c(-c3cnn(C(F)F)c3)cn2)n1 [Example 101, (S)-(4-(4-((4-(3-aminopiperidin-1-yl)-5-(1-(difluoromethyl)-1H-pyrazol-4-yl)pyridin-2-yl)amino)pyrimidin-2-yl)-3-fluoro-5-methoxyphenyl)methanol hydrochloride] | ≤ 10 nM
2 | CNC[C@H]1CCCN(c2cc(Nc3ccnc(-c4c(F)cccc4OC)n3)ncc2-c2cnn(C(F)F)c2)C1 [Example 267, (R)-N-(5-(1-(difluoromethyl)-1H-pyrazol-4-yl)-4-(3-((methylamino)methyl)piperidin-1-yl)pyridin-2-yl)-2-(2-fluoro-6-methoxyphenyl)pyrimidin-4-amine hydrochloride] | ≤ 10 nM
3 | COc1cccc(F)c1-c1nccc(Nc2cc(N3CCC[C@H](N)C3)c(C#CC3CCOCC3)cn2)n1 [Example 79, (S)-N-(4-(3-aminopiperidin-1-yl)-5-((tetrahydro-2H-pyran-4-yl)ethynyl)pyridin-2-yl)-2-(2-fluoro-6-methoxyphenyl)pyrimidin-4-amine hydrochloride] | ≤ 10 nM
4 | COc1cccc(F)c1-c1nccc(Nc2cc(N3CCC[C@H](N)C3)c(-c3cnn(C(F)(F)F)c3)cn2)n1 [Example 107, (S)-N-(4-(3-aminopiperidin-1-yl)-5-(1-(trifluoromethyl)-1H-pyrazol-4-yl)pyridin-2-yl)-2-(2-fluoro-6-methoxyphenyl)pyrimidin-4-amine hydrochloride] | ≤ 10 nM
5 | COc1cccc(F)c1-c1nccc(Nc2cc(N3CCC[C@H](N)C3)c(-c3ccc(C(=O)N4CCN(CCO)CC4)cc3)cn2)n1 [Example 288, (S)-(4-(4-(3-aminopiperidin-1-yl)-6-((2-(2-fluoro-6-methoxyphenyl)pyrimidin-4-yl)amino)pyridin-3-yl)phenyl)(4-(2-hydroxyethyl)piperazin-1-yl)methanone hydrochloride] | ≤ 10 nM
6 | COc1cccc(F)c1-c1nccc(Nc2cc(N3CCC[C@H](N)C3)c(-c3cnn(CF)c3)cn2)n1 [Example 247, (S)-N-(4-(3-aminopiperidin-1-yl)-5-(1-(fluoromethyl)-1H-pyrazol-4-yl)pyridin-2-yl)-2-(2-fluoro-6-methoxyphenyl)pyrimidin-4-amine hydrochloride] | ≤ 10 nM
7 | COc1cccc(F)c1-c1nc(Nc2cc(N3CCC[C@H](N)C3)c(-c3cnn(C(F)(F)F)c3)cn2)ccc1[N+](=O)[O-] [Example 154, 4-((S)-3-aminopiperidin-1-yl)-N-(6-(2-fluoro-6-methoxyphenyl)-5-nitropyridin-2-yl)-5-(1-(trifluoromethyl)-1H-pyrazol-4-yl)pyridin-2-amine hydrochloride] | ≤ 10 nM
8 | 6-((6-(2-fluoro-6-methoxyphenyl)-5-nitropyridin-2-yl)amino)-N-((1R,3S)-3-hydroxycyclopentyl)-4-((S)-3-hydroxypiperidin-1-yl)nicotinamide [Example 195] | ≤ 10 nM
9 | COc1cccc(F)c1-c1nccc(Nc2cc(N3CCC[C@H](O)C3)c(-c3ccc(CN4CCC(N(C)C)C4)nc3)cn2)n1 (stereo partly drawn) [Example 48, (3S)-1-(6′-((3-(dimethylamino)pyrrolidin-1-yl)methyl)-6-((2-(2-fluoro-6-methoxyphenyl)pyrimidin-4-yl)amino)-[3,3′-bipyridin]-4-yl)piperidin-3-ol] | ≤ 10 nM
10 | 2-(2-fluoro-6-methoxyphenyl)-6-((4-((S)-3-hydroxypiperidin-1-yl)-5-(1-(1-methylpiperidin-4-yl)-1H-pyrazol-4-yl)pyrimidin-2-yl)amino)nicotinonitrile [Example 63] | 50 to 100 nM
11 | CCN[C@H]1CCN(c2cc(Nc3ccnc(-c4c(F)cccc4OC)n3)ncc2-c2cnn(C3CCOCC3)c2)C1 [Example 125, (S)-N-(4-(3-(ethylamino)pyrrolidin-1-yl)-5-(1-(tetrahydro-2H-pyran-4-yl)-1H-pyrazol-4-yl)pyridin-2-yl)-2-(2-fluoro-6-methoxyphenyl)pyrimidin-4-amine] | ≤ 10 nM
12 | N[C@H]1CCCN(c2cc(Nc3ccnc(-c4c(F)cccc4CO)n3)ncc2-c2cnn(C(F)F)c2)C1 [Example 242, (S)-(2-(4-((4-(3-aminopiperidin-1-yl)-5-(1-(difluoromethyl)-1H-pyrazol-4-yl)pyridin-2-yl)amino)pyrimidin-2-yl)-3-fluorophenyl)methanol hydrochloride] | ≤ 10 nM
13 | COc1cccc(F)c1-c1nccc(Nc2cc(N3CCC[C@H](N)C3)c(-c3ccc4c(c3)OCC(=O)N4)cn2)n1 [Example 260, (S)-7-(4-(3-aminopiperidin-1-yl)-6-((2-(2-fluoro-6-methoxyphenyl)pyrimidin-4-yl)amino)pyridin-3-yl)-2H-benzo[b][1,4]oxazin-3(4H)-one hydrochloride] | ≤ 10 nM
14 | CN[C@H]1CCCN(c2cc(Nc3ccnc(-c4c(F)cccc4OC)n3)ncc2-c2cnn(C(F)F)c2)C1 [Example 122, (S)-N-(5-(1-(difluoromethyl)-1H-pyrazol-4-yl)-4-(3-(methylamino)piperidin-1-yl)pyridin-2-yl)-2-(2-fluoro-6-methoxyphenyl)pyrimidin-4-amine hydrochloride] | ≤ 10 nM
15 | COc1cccc(F)c1-c1nccc(Nc2cc(N3CCC4(CCN(C)C4)CC3)c(-c3cnn(C(F)F)c3)cn2)n1 [Example 135, N-(5-(1-(difluoromethyl)-1H-pyrazol-4-yl)-4-(2-methyl-2,8-diazaspiro[4.5]decan-8-yl)pyridin-2-yl)-2-(2-fluoro-6-methoxyphenyl)pyrimidin-4-amine] | ≤ 10 nM
16 | COc1cccc(F)c1-c1nccc(Nc2cc(N3CCC[C@H](O)C3)c(-c3ccc(CN4CCCC(O)C4)nc3)cn2)n1 (stereo partly drawn) [Example 49, 1-((6′-((2-(2-fluoro-6-methoxyphenyl)pyrimidin-4-yl)amino)-4′-((S)-3-hydroxypiperidin-1-yl)-[3,3′-bipyridin]-6-yl)methyl)piperidin-3-ol] | > 100 nM
17 | COc1cccc(F)c1-c1nccc(Nc2cc(N3CCC[C@H](N)C3)c(-c3cccc(C(C)=O)c3)cn2)n1 [Example 291, (S)-1-(3-(4-(3-aminopiperidin-1-yl)-6-((2-(2-fluoro-6-methoxyphenyl)pyrimidin-4-yl)amino)pyridin-3-yl)phenyl)ethan-1-one hydrochloride] | ≤ 10 nM

Further lines, results first:

Row | IC50 | Compound
18 | ≤ 10 nM | COc1cccc(F)c1-c1nccc(Nc2cc(N3CCC[C@H](N)C3)c(-c3cnn(CCN4CCCC4)c3)cn2)n1 [Example 163, (S)-N-(4-(3-aminopiperidin-1-yl)-5-(1-(2-(pyrrolidin-1-yl)ethyl)-1H-pyrazol-4-yl)pyridin-2-yl)-2-(2-fluoro-6-methoxyphenyl)pyrimidin-4-amine hydrochloride]
19 | ≤ 10 nM | COC(=O)C(C)(C)n1cc(-c2cnc(Nc3ccnc(-c4c(F)cccc4OC)n3)cc2N2CCC[C@H](N)C2)cn1 [Example 278, methyl (S)-2-(4-(4-(3-aminopiperidin-1-yl)-6-((2-(2-fluoro-6-methoxyphenyl)pyrimidin-4-yl)amino)pyridin-3-yl)-1H-pyrazol-1-yl)-2-methylpropanoate hydrochloride]
20 | ≤ 10 nM | COc1cc(CO)cc(F)c1-c1nccc(Nc2cc(N3CCC[C@H](N)C3)c(C#CC3CCOCC3)cn2)n1 [Example 103, (S)-(4-(4-((4-(3-aminopiperidin-1-yl)-5-((tetrahydro-2H-pyran-4-yl)ethynyl)pyridin-2-yl)amino)pyrimidin-2-yl)-3-fluoro-5-methoxyphenyl)methanol hydrochloride]
21 | ≤ 10 nM | COc1cccc(F)c1-c1nc(Nc2cc(N3CC[C@@H](N)[C@H](O)C3)c(-c3cnn(C(F)F)c3)cn2)ccc1C#N [Example 326, 6-((4-((3R,4R)-4-amino-3-hydroxypiperidin-1-yl)-5-(1-(difluoromethyl)-1H-pyrazol-4-yl)pyridin-2-yl)amino)-2-(2-fluoro-6-methoxyphenyl)nicotinonitrile]
22 | ≤ 10 nM | COc1cccc(F)c1-c1nc(Nc2cc(N3CCC[C@H](O)C3)c(-c3cnn(CC(F)F)c3)cn2)ccc1C(N)=O [Example 160, 6-((5-(1-(2,2-difluoroethyl)-1H-pyrazol-4-yl)-4-((S)-3-hydroxypiperidin-1-yl)pyridin-2-yl)amino)-2-(2-fluoro-6-methoxyphenyl)nicotinamide]
23 | ≤ 10 nM | COc1cccc(F)c1-c1nccc(Nc2cc(N3CCC[C@H](N)C3)c(-c3cnn(C4CC(C)(C)OC(C)(C)C4)c3)cn2)n1 [Example 269, (S)-N-(4-(3-aminopiperidin-1-yl)-5-(1-(2,2,6,6-tetramethyltetrahydro-2H-pyran-4-yl)-1H-pyrazol-4-yl)pyridin-2-yl)-2-(2-fluoro-6-methoxyphenyl)pyrimidin-4-amine hydrochloride]
24 | ≤ 10 nM | COc1cc(CO)cc(F)c1-c1nccc(Nc2cc(N3CCC[C@H](O)C3)c(-c3cnn(C4CCOCC4)c3)cn2)n1 [Example 161, (S)-1-(2-((2-(2-fluoro-4-(hydroxymethyl)-6-methoxyphenyl)pyrimidin-4-yl)amino)-5-(1-(tetrahydro-2H-pyran-4-yl)-1H-pyrazol-4-yl)pyridin-4-yl)piperidin-3-ol]
25 | ≤ 10 nM | COc1cccc(F)c1-c1nccc(Nc2cc(N3C[C@@H](N)C[C@@H](F)C3)c(-c3cnn(C(F)F)c3)cn2)n1 [Example 303, N-(4-((3S,5R)-3-amino-5-fluoropiperidin-1-yl)-5-(1-(difluoromethyl)-1H-pyrazol-4-yl)pyridin-2-yl)-2-(2-fluoro-6-methoxyphenyl)pyrimidin-4-amine hydrochloride]
26 | ≤ 10 nM | COc1cccc(F)c1-c1nc(Nc2cc(N3CCC[C@H](N)C3)c(-c3cnn(C4CCOCC4)c3)cn2)ccc1C#N [Example 300, 6-((4-((S)-3-aminopiperidin-1-yl)-5-(1-(tetrahydro-2H-pyran-4-yl)-1H-pyrazol-4-yl)pyridin-2-yl)amino)-2-(2-fluoro-6-methoxyphenyl)nicotinonitrile hydrochloride]
